# Assay results taken from PubChem BioAssay (NCI).
#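 A five-concentration, 48-hour dose response in 96-well plates underlies each endpoint, interpolated linearly between surrounding concentrations. At the GI50, growth is halved. At the TGI there is no net growth.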
# Assays:
# Test in all cases: NCI tumour cell line growth inhibition, 48 h
# 786-0 renal = tested on: 786-0 renal
# A498 renal = tested on: A498 renal
# A549 NSCLC = tested on: A549 NSCLC
# ACHN renal = tested on: ACHN renal
# BT-549 breast = tested on: BT-549 breast
# CAKI-1 renal = tested on: CAKI-1 renal
# CCRF-CEM leukemia = tested on: CCRF-CEM leukemia
# COLO 205 colon = tested on: COLO 205 colon
# DU-145 prostate = tested on: DU-145 prostate
# EKVX NSCLC = tested on: EKVX NSCLC
# HCC-2998 colon = tested on: HCC-2998 colon
# HCT-116 colon = tested on: HCT-116 colon
# HCT-15 colon = tested on: HCT-15 colon
# HL-60(TB) leukemia = tested on: HL-60(TB) leukemia
# HOP-62 NSCLC = tested on: HOP-62 NSCLC
# HOP-92 NSCLC = tested on: HOP-92 NSCLC
# HS 578T breast = tested on: HS 578T breast
# HT29 colon = tested on: HT29 colon
# IGROV1 ovarian = tested on: IGROV1 ovarian
# K-562 leukemia = tested on: K-562 leukemia
# KM12 colon = tested on: KM12 colon
# LOX IMVI melanoma = tested on: LOX IMVI melanoma
# M14 melanoma = tested on: M14 melanoma
# MALME-3M melanoma = tested on: MALME-3M melanoma
# MCF7 breast = tested on: MCF7 breast
# MDA-MB-231 breast = tested on: MDA-MB-231 breast
# MDA-MB-435 = tested on: MDA-MB-435
# MOLT-4 leukemia = tested on: MOLT-4 leukemia
# NCI-H226 lung = tested on: NCI-H226 lung
# NCI-H460 lung = tested on: NCI-H460 lung
# NCI-H522 lung = tested on: NCI-H522 lung
# NCI/ADR-RES ovarian = tested on: NCI/ADR-RES ovarian
# OVCAR-3 ovarian = tested on: OVCAR-3 ovarian
# OVCAR-4 ovarian = tested on: OVCAR-4 ovarian
# OVCAR-5 ovarian = tested on: OVCAR-5 ovarian
# OVCAR-8 ovarian = tested on: OVCAR-8 ovarian
# PC-3 prostate = tested on: PC-3 prostate
# RPMI-8226 leukemia = tested on: RPMI-8226 leukemia
# RXF 393 renal = tested on: RXF 393 renal
# SF-268 CNS = tested on: SF-268 CNS
# SF-295 CNS = tested on: SF-295 CNS
# SF-539 CNS = tested on: SF-539 CNS
# SK-MEL-2 melanoma = tested on: SK-MEL-2 melanoma
# SK-MEL-28 melanoma = tested on: SK-MEL-28 melanoma
# SK-MEL-5 melanoma = tested on: SK-MEL-5 melanoma
# SK-OV-3 ovarian = tested on: SK-OV-3 ovarian
# SN12C renal = tested on: SN12C renal
# SNB-19 CNS = tested on: SNB-19 CNS
# SNB-75 CNS = tested on: SNB-75 CNS
# SW-620 colon = tested on: SW-620 colon
# T-47D breast = tested on: T-47D breast
# TK-10 renal = tested on: TK-10 renal
# U251 CNS = tested on: U251 CNS
# UACC-257 melanoma = tested on: UACC-257 melanoma
# UACC-62 melanoma = tested on: UACC-62 melanoma
# UO-31 renal = tested on: UO-31 renal
smiles,measurement,setting,value
COc1ccc2c(c1)c(-c1cc(N)n3nc(-c4cn(C)c5ccc(OC)cc45)cc3n1)cn2C,GI50,786-0 renal,1640 nM
same,TGI,786-0 renal,3410 nM
same,GI50,A498 renal,1840 nM
same,TGI,A498 renal,3680 nM
same,GI50,A549 NSCLC,1700 nM
same,TGI,A549 NSCLC,3310 nM
same,GI50,ACHN renal,1790 nM
same,TGI,ACHN renal,3250 nM
same,GI50,BT-549 breast,3230 nM
same,TGI,BT-549 breast,12000 nM
same,GI50,CAKI-1 renal,1790 nM
same,TGI,CAKI-1 renal,3460 nM
same,GI50,CCRF-CEM leukemia,436 nM
same,TGI,CCRF-CEM leukemia,7460 nM
same,GI50,COLO 205 colon,1700 nM
same,TGI,COLO 205 colon,3190 nM
same,GI50,DU-145 prostate,1800 nM
same,TGI,DU-145 prostate,3190 nM
same,GI50,EKVX NSCLC,1840 nM
same,TGI,EKVX NSCLC,3670 nM
same,GI50,HCC-2998 colon,1870 nM
same,TGI,HCC-2998 colon,3320 nM
same,GI50,HCT-116 colon,1500 nM
same,TGI,HCT-116 colon,3100 nM
same,GI50,HCT-15 colon,1150 nM
same,TGI,HCT-15 colon,2780 nM
same,GI50,HL-60(TB) leukemia,1310 nM
same,TGI,HL-60(TB) leukemia,3980 nM
same,GI50,HOP-62 NSCLC,1810 nM
same,TGI,HOP-62 NSCLC,3670 nM
same,GI50,HOP-92 NSCLC,1880 nM
same,TGI,HOP-92 NSCLC,4250 nM
same,GI50,HS 578T breast,2570 nM
same,TGI,HS 578T breast,6670 nM
same,GI50,HT29 colon,1730 nM
same,TGI,HT29 colon,3140 nM
same,GI50,IGROV1 ovarian,2000 nM
same,TGI,IGROV1 ovarian,4140 nM
same,GI50,K-562 leukemia,392 nM
same,TGI,K-562 leukemia,> 100000 nM
same,GI50,KM12 colon,1850 nM
same,TGI,KM12 colon,3510 nM
same,GI50,LOX IMVI melanoma,2040 nM
same,TGI,LOX IMVI melanoma,3640 nM
same,GI50,M14 melanoma,1740 nM
same,TGI,M14 melanoma,3420 nM
same,GI50,MALME-3M melanoma,1870 nM
same,TGI,MALME-3M melanoma,3650 nM
same,GI50,MCF7 breast,1250 nM
same,TGI,MCF7 breast,2740 nM
same,GI50,MDA-MB-231 breast,1840 nM
same,TGI,MDA-MB-231 breast,3490 nM
same,GI50,MDA-MB-435,1910 nM
same,TGI,MDA-MB-435,3740 nM
same,GI50,MOLT-4 leukemia,1950 nM
same,TGI,MOLT-4 leukemia,4880 nM
same,GI50,NCI-H226 lung,2060 nM
same,TGI,NCI-H226 lung,4250 nM
same,GI50,NCI-H460 lung,1790 nM
same,TGI,NCI-H460 lung,3520 nM
same,GI50,NCI-H522 lung,1740 nM
same,TGI,NCI-H522 lung,3410 nM
same,GI50,NCI/ADR-RES ovarian,2070 nM
same,TGI,NCI/ADR-RES ovarian,4520 nM
same,GI50,OVCAR-3 ovarian,1750 nM
same,TGI,OVCAR-3 ovarian,3170 nM
same,GI50,OVCAR-4 ovarian,2040 nM
same,TGI,OVCAR-4 ovarian,4270 nM
same,GI50,OVCAR-5 ovarian,1840 nM
same,TGI,OVCAR-5 ovarian,3580 nM
same,GI50,OVCAR-8 ovarian,1750 nM
same,TGI,OVCAR-8 ovarian,3290 nM
same,GI50,PC-3 prostate,1840 nM
same,TGI,PC-3 prostate,3930 nM
same,GI50,RPMI-8226 leukemia,1780 nM
same,TGI,RPMI-8226 leukemia,6150 nM
same,GI50,RXF 393 renal,1870 nM
same,TGI,RXF 393 renal,3570 nM
same,GI50,SF-268 CNS,2030 nM
same,TGI,SF-268 CNS,4400 nM
same,GI50,SF-295 CNS,1880 nM
same,TGI,SF-295 CNS,3440 nM
same,GI50,SF-539 CNS,1780 nM
same,TGI,SF-539 CNS,3270 nM
same,GI50,SK-MEL-2 melanoma,1830 nM
same,TGI,SK-MEL-2 melanoma,3460 nM
same,GI50,SK-MEL-28 melanoma,1850 nM
same,TGI,SK-MEL-28 melanoma,3460 nM
same,GI50,SK-MEL-5 melanoma,1790 nM
same,TGI,SK-MEL-5 melanoma,3250 nM
same,GI50,SK-OV-3 ovarian,2140 nM
same,TGI,SK-OV-3 ovarian,4310 nM
same,GI50,SN12C renal,2020 nM
same,TGI,SN12C renal,3980 nM
same,GI50,SNB-19 CNS,2500 nM
same,TGI,SNB-19 CNS,6690 nM
same,GI50,SNB-75 CNS,2130 nM
same,TGI,SNB-75 CNS,6270 nM
same,GI50,SW-620 colon,1020 nM
same,TGI,SW-620 colon,2410 nM
same,GI50,T-47D breast,1700 nM
same,TGI,T-47D breast,3500 nM
same,GI50,TK-10 renal,1810 nM
same,TGI,TK-10 renal,3600 nM
same,GI50,U251 CNS,1820 nM
same,TGI,U251 CNS,3490 nM
same,GI50,UACC-257 melanoma,1780 nM
same,TGI,UACC-257 melanoma,3630 nM
same,GI50,UACC-62 melanoma,1960 nM
same,TGI,UACC-62 melanoma,3870 nM
same,GI50,UO-31 renal,1660 nM
same,TGI,UO-31 renal,3190 nM
